{"source": "paper PMC12440375", "about": "(Biochemistry, 2025)", "key": {"EmrE [1]": {"target": "T1, EmrE (Escherichia coli, UniProt P23895)", "T1 sequence (P23895 1-110)": "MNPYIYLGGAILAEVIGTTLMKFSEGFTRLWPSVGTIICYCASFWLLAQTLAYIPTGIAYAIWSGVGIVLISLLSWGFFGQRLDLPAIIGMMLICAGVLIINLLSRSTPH", "assay": "fluorescence polarization", "type": "binding"}, "EmrE [2]": {"target": "T2, EmrE (Escherichia coli, UniProt P23895, K22R)", "T2 sequence (P23895 1-110 K22R)": "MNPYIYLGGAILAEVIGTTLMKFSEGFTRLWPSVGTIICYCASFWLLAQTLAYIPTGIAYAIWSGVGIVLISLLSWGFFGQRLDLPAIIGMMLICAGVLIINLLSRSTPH", "assay": "fluorescence polarization", "type": "binding"}, "EmrE [3]": {"target": "T3, EmrE (Escherichia coli, UniProt P23895, K22A)", "T3 sequence (P23895 1-110 K22A)": "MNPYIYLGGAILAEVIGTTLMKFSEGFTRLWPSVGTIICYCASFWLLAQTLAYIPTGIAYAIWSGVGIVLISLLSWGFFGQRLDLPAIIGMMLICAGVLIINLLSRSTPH", "assay": "fluorescence polarization", "type": "binding"}, "EmrE [4]": {"target": "T3, EmrE", "assay": "TROSY-HSQC NMR", "type": "binding"}, "native MS [5]": {"target": "the molecule itself", "assay": "native MS"}, "native MS [6]": {"target": "the molecule itself", "assay": "native MS", "remark": "listed apart in the source"}}, "note": "Read-outs that look alike come from different tables or passages of the source.", "data": [{"molecule": "CC1=CC(C)=[N+]2C1=C(c1ccc3c(c1)OCCOCCOCCOCCOCCO3)c1c(C)cc(C)n1[B-]2(F)F", "note": "[benzo[18]crown-6 BODIPY, 10-(2,3,5,6,8,9,11,12,14,15-decahydrobenzo[b][1,4,7,10,13,16]Hexaoxacyclooctadecin-18-yl)-5,5-difluoro-1,3,7,9-tetramethyl-5H-4l4,5l4-dipyrrolo[1,2-c:2′,1′-f][1,3,2]diazaborinine]", "values": [{"measurement": "Kd", "setting": "EmrE [1]", "value": 97.4, "unit": "nM"}, {"measurement": "Kd", "setting": "EmrE [2]", "value": 226, "unit": "nM"}, {"measurement": "Kd", "setting": "EmrE [3]", "value": 154, "unit": "nM"}]}, {"molecule": "c1ccc([P+](c2ccccc2)(c2ccccc2)c2ccccc2)cc1", "note": "[tetraphenylphosphonium bromide]", "values": [{"measurement": "TROSY-HSQC NMR", "setting": "EmrE [4]", "value": "a portion of the drug-free K22A-EmrE was saturated with the substrate tetraphenylphosphonium bromide (TPP+)"}]}, {"molecule": "EmrE (WT-EmrE), multidrug efflux pump from Escherichia coli (natural protein) MNPYIYLGGAILAEVIGTTLMKFSEGFTRLWPSVGTIICYCASFWLLAQTLAYIPTGIAYAIWSGVGIVLISLLSWGFFGQRLDLPAIIGMMLICAGVLIINLLSRSTPH", "values": [{"measurement": "stoichiometry N", "setting": "native MS [5]", "value": 2}]}, {"molecule": "Saposin A (natural protein) SLPCDICKDVVTAAGDMLKDNATEEEILVYLEKTCDWLPKPNMSASCKEIVDSYLPVILDIIKGEMSRPGEVCSALNLCESLQ", "values": [{"measurement": "stoichiometry N", "setting": "native MS [5]", "value": 2}, {"measurement": "stoichiometry N", "setting": "native MS [6]", "value": 4}]}]}
